From paper PMC10846865, “The Blood-Brain Barrier: Implications for Experimental Cancer Therapeutics” (Annual review of cancer biology, 2023)

Assays:
[1] = Spatial drug imaging by MALDI-MSI (drug distribution in tissues); details: 10 mg/kg, 30'; DHB matrix; 12 µm-thick sections, MALDI MSI 12 Tesla FT-ICR, 100 µm spatial resolution; Agar Lab
[2] = tested on: PI3K pathway; parameters: method as in Wen et al. 2019b; details: ref Wen et al. 2019b, cited from earlier work
[3] = parameters: method as in Mittapalli et al. 2013; details: ref Mittapalli et al. 2013; cited from earlier work
[4] = tested on: CNS metastases; parameters: method as in Long et al. 2012, Ng et al. 2022; details: ref Long et al. 2012, Ng et al. 2022; cited from earlier work
[5] = tested on: glioblastoma; parameters: method as in Iorgulescu et al. 2021; details: preclinical studies, ref Iorgulescu et al. 2021; cited from earlier work
[6] = cited from earlier work
[7] = cited from earlier work; remark: listed apart in the source
[8] = tested on: newly diagnosed glioblastoma; parameters: method as in Gilbert et al. 2014; details: patients with newly diagnosed glioblastoma; ref Gilbert et al. 2014; cited from earlier work
[9] = tested on: recurrent glioblastoma; details: cited from earlier work

Compound: CNCc1ccc(-c2[nH]c3cc(F)cc4c3c2CCNC4=O)cc1 [Rucaparib]
- Drug detection on brain by MALDI or LESA [1]: Drug not detected on brain by MALDI or LESA

Compound: Nc1cc(C(F)(F)F)c(-c2cc(N3CCOCC3)nc(N3CCOCC3)n2)cn1 [buparlisib]
- inhibition of the PI3K pathway (molecular response) ([2]; pharmacokinetic measures paired with molecular response): not potent enough to effectively inhibit the PI3K pathway
- unbound tumor-to-plasma ratio [2]: high

Compound: CC(C)(C)c1nc(-c2cccc(NS(=O)(=O)c3c(F)cccc3F)c2F)c(-c2ccnc(N)n2)s1 [dabrafenib]
- distribution across an intact BBB [3]: limited distribution across an intact BBB
- response in patients with CNS metastases [4]: clinically significant response rates

Compound: C[C@@H]1C[C@H]2[C@@H]3CCC4=CC(=O)C=C[C@]4(C)[C@@]3(F)[C@@H](O)C[C@]2(C)[C@@]1(O)C(=O)CO [dexamethasone]
- effect on clinical benefit of immune checkpoint blockade [5]: limit the clinical benefit of immune checkpoint blockade in glioblastoma in a dose-dependent manner

Compound: CN(Cc1cnc2nc(N)nc(N)c2n1)c1ccc(C(=O)N[C@@H](CCC(=O)O)C(=O)O)cc1 [methotrexate]
- therapeutic window, intrathecal treatment ([6]; intrathecal treatment of hematological malignancies, ref Kwong et al. 2009, Clement & Holle 2017): narrow therapeutic window

Compound: S=P(N1CC1)(N1CC1)N1CC1 [thiotepa]
- Kp,uu (unbound drug levels in blood and cerebrospinal fluid) ([7]; blood vs cerebrospinal fluid, ref Heideman et al. 1989, 1993): ~ 1
- half-life ([7]; rapidly metabolized, ref Heideman et al. 1989, 1993): less than 2 hours
- dose-limiting toxicity ([7]; ref Dunkel et al. 1998): myelosuppression
- apparent brain permeability (Papp) ([7]; ref Heideman et al. 1989, 1993): high

Compound: CC[C@]1(O)C[C@H]2CN(CCc3c([nH]c4ccccc34)[C@@](C(=O)OC)(c3cc4c(cc3OC)N(C=O)[C@H]3[C@@](O)(C(=O)OC)[C@H](OC(C)=O)[C@]5(CC)C=CCN6CC[C@]43[C@@H]65)C2)C1 [vincristine]
- toxicity of inadvertent administration into the CSF ([6]; ref Dyer 2001, Chotsampancharoen et al. 2016): fatalities due to severe neurotoxicity

Compound: bevacizumab
- overall survival [8]: no difference
- delivery of radiolabeled temozolomide as measured by PET imaging ([9]; in vivo): decreased delivery of radiolabeled temozolomide
- vascular permeability ([9]; not told): decrease vascular permeability
